Measurements: patent US20050042283A1, “Histamine and CCK2/gastrin receptor blockade in the treatment of acid-peptic disease and cancer” (UNIVERSITY OF MASSACHUSETTS, priority 2003, published 2005)

Legend:
[1] = tested on: ECL cell; conditions: rats; Poynter et al.; cited from earlier work
[2] = tested on: H. felis-infected INS-GAS mice; experiment: Gastric mucosa histological evaluation and scoring; type: in vivo; conditions: omeprazole study, 3 months; scale 0 to 4; n = 4
Text: The insulin-gastrin (INS-GAS) transgenic mice (FVB/N background) have been described previously (Wang, T. C. et al., 2000; Wang T. C. et al., 1993) and were free of specific pathogens. Animals were housed in microisolator, solid-bottomed polycarbonate cages, fed a commercially prepared pelleted diet, and given water ad libitum. One hundred twenty four (124) male INS-GAS mice at 2 or 3 months of age were inoculated with Helicobacter felis (ATCC 49179) as previously described (Wang, T. C. et al., 2000). Infection status was confirmed at 14 weeks and 26 weeks post inoculation by enzyme-linked immunosorbent assay (ELISA) to measure immunoglobulin IgG antibody to H. felis, and by quantitative real-time PCR assays of gastric corpus tissue at necropsy as described below. All experiments were approved by the Institutional Animal Care and Use Committee of University of Massachusetts Medical School.
Mice in group III were treated orally with the histamine H2 receptor antagonist loxtidine (in drinking water) at a dose of 0.5 g/L, while group IV mice received both drugs. For the 3 months drug study of inhibitory effects on maximal acid secretion, gastric atrophy, hyperplasia and dysplasia, 8 mice were prepared for each group. For the 6 months drug study of inhibitory effects on gastric carcinogenesis, 17 mice were prepared for each group.
The proton pump inhibitor omeprazole was purchased from Sigma (St. Louis Mo.) and dissolved in dimethylsulfoxide (DMSO)/PEG300, a 1:1 mixture at the concentration of 40 mg/ml, and injected intraperitoneally daily at the dose of […] (=350 micromole/kg) for 3 months. Twenty four (24) mice were divided into four groups. Mice in group A were controls treated with vehicle only, whereas group B mice were treated with omeprazole alone. Group C and D mice were treated with combination of omeprazole and YF476 or loxtidine, respectively.
At necropsy, linear strips extending from the squamocolumnar junction through the proximal duodenum were fixed in 10% neutral-buffered formalin, paraffin-embedded, cut at 5 microns, and stained with hematoxylin and eosin. Indices of injury in the gastric cardia/corpus and antrum were scored on an ordinal scale from 0 to 4 in increments of 0.5 by a single veterinary pathologist (A.B.R.) blinded to treatment groups. Paraffin-embedded sections were also stained with the Warthin-Starry silver staining method for detection of H.felis as previously described (Fox, J. G. et al., 2003).

[3] = target: T1, CCK-B (Rattus norvegicus, UniProt P30553); conditions: reportedly; Lindstrom et al 1999; cited from earlier work
T1 sequence (P30553 1-452): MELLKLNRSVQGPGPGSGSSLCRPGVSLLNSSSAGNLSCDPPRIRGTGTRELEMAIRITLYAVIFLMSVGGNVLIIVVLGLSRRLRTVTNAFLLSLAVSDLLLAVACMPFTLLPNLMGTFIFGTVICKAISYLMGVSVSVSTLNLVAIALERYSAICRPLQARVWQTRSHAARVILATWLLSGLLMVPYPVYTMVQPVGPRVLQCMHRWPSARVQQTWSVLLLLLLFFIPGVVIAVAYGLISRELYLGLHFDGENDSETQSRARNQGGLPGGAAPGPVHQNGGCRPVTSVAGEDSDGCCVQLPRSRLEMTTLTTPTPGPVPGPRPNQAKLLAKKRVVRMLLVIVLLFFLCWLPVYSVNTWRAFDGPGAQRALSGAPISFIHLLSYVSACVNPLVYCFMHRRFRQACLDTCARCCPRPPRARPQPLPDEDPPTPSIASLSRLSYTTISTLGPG

Row | SMILES | Duration of administration after which ECL cell hyperplasia was seen [1] [days] | Corpus histological score: Atrophy [2] | Corpus histological score: Dysplasia [2] | Corpus histological score: Hyperplasia [2] | Corpus histological score: Inflammation [2] [a] | Potency relative to YF476 [3]
1 | COc1ccc2[nH]c([S+]([O-])Cc3ncc(C)c(OC)c3C)nc2c1 (stereo not drawn) [Omeprazole alone] | 28 | 3.13 ± 0.25 | 1.38 ± 0.48 | 2.75 ± 0.50 | 1.88 ± 0.63 | –
2 | Cc1cccc(NC(=O)N[C@@H]2N=C(c3ccccc3)c3ccccc3N(CC(=O)c3ccccc3C)C2=O)c1 [YM022] | – | – | – | – | – | about 5 times
